Test results reported in article PMC3104989 (PLoS ONE, 2011).

Target: T1, Hog1 (Saccharomyces cerevisiae, UniProt P32485)
T1 sequence (P32485 2-435): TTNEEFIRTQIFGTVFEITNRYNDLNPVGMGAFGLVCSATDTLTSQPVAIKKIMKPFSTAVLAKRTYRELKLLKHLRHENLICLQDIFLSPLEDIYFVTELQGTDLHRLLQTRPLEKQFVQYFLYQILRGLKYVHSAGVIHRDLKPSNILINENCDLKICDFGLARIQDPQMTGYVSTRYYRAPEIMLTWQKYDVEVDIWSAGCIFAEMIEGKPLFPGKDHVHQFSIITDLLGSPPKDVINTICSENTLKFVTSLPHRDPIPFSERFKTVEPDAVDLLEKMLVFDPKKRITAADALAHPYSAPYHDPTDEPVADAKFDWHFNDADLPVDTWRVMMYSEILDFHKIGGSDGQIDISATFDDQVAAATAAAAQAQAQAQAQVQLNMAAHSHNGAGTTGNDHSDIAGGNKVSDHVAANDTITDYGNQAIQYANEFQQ
Assay: in vitro radiometric kinase assay, single dose […]
Assay type: biochemical

Compound | remaining activity at 0.1 µM [%]
c1ccc(Cn2nnc(-c3ccccc3)c2-c2ccncc2)cc1 [1b] | 50 to 70
Fc1ccc(-c2nnn(CC3CC3)c2-c2ccncc2)cc1 [1a] | 50 to 70
Clc1ccc(-c2nnn(Cc3ccccc3)c2-c2ccncc2)cc1 [1d] | 50 to 70
Fc1ccc(-c2nnn(Cc3ccccc3)c2-c2ccncc2)cc1 [1c] | 50 to 70
Brc1ccc(-c2nnn(Cc3ccccc3)c2-c2ccncc2)cc1 [1e] | 50 to 70

Second part, the compound after the results:

remaining activity at 0.1 µM [%] | Compound
35 to 40 | CC1CCC(Nc2cc(-c3c(-c4ccc(F)cc4)nnn3Cc3ccccc3)ccn2)CC1 (stereo not drawn) [4d, 4-(1-benzyl-4-(4-fluorophenyl)-1H-1,2,3-triazol-5-yl)-N-(4-methyl-cyclohexyl)pyridin-2-amine]
35 to 40 | C[C@H](Nc1cc(-c2c(-c3ccc(F)cc3)nnn2Cc2ccccc2)ccn1)c1ccccc1 [4e, (S)-4-(1-benzyl-4-(4-fluorophenyl)-1H-1,2,3-triazol-5-yl)-N-(1-phenylethyl)pyridin-2-amine]

Target: T1, Hog1
Assay: in vitro radiometric kinase assay with biotinylated Sic1 peptide
Assay type: biochemical

IC50 [nM] | Compound
6.2 ± 2.2 | CC(C)Nc1cc(-c2c(-c3ccc(F)cc3)nnn2Cc2ccccc2)ccn1 [4b, 4-(1-benzyl-4-(4-fluorophenyl)-1H-1,2,3-triazol-5-yl)-N-iso-propyl-pyridin-2-amine]
7.4 ± 0.41 | CC(C)Nc1cc(-c2c(-c3ccccc3)nnn2Cc2ccccc2)ccn1 [4a, 4-(1-benzyl-4-phenyl-1H-1,2,3-triazol-5-yl)-N-isopropylpyridin-2-amine]
